Source: publication PMC9575645 (Signal Transduction and Targeted Therapy, 2022)

How the values were obtained:
[1] = system: Porcine epidemic diarrhea coronavirus (QIAP1401); assay: In vitro antiviral activity against PEDV in Vero E6 cells (CCIF viral yield); format: cell-based; conditions: for IC50: Vero E6 cells
Description: Cells were grown in 6- or 12-well plates or 8-well chamber slides to the desired confluency and then washed twice with phosphate-buffered saline (PBS, pH 7.4). They were then mock-inoculated with medium only or virus-inoculated with various multiplicities of infection (MOI): MOI of 0.01 or 1 FFU/cell for IAV, and MOI of 0.01 or 0.1 FFU/cell for SARS-CoV-2, BCoV, PEDV, PRRSV, and PSaV. Thereafter, each inoculum was absorbed for 1 h, and the cells were washed twice with PBS (pH 7.4). As shown in Supplementary Table 4, further treatments and incubations varied dependent on the virus species used. Cells treated with PKA inhibitor H89 (5 μM or 50 μM concentration) or vehicle-treated immediately after absorption of IAV at an MOI of 1 FFU or SARS-CoV-2 at an MOI of 0.1 FFU were incubated for 24 and 36 h, respectively, and each cell lysate was used for the detection of HSL and pHSL by western blot analysis as described below. Cells treated with lipase inhibitors at the median incubation time of IAV or SARS-CoV-2 as described in the above condition were supplemented with LA, OA, or PA at 100 µM concentration and left incubation for further median incubation time. The cells were used to assess levels of intracellular TAGs, cholesterol, FFAs, glycerol, FAO, proinflammatory cytokines as well as viral genome copy numbers and virus titers as described below and in Supplementary Information.
To determine the antiviral effects of chemicals, serial 10-fold dilutions of each cell culture supernatant after three cycles of freezing and thawing cycles were prepared in appropriate medium supplemented with 100 U/mL penicillin and 100 μg/mL streptomycin as described above. To determine the viral infectivity titer in lung tissues from the hamsters challenged with or without SARS-CoV-2, or administered with or without inhibitors as described above, aseptically sampled lungs from five hamsters per group at day five post-virus infection were harvested. Cleared supernatants from lung tissue as produced from IAV-infected mice above were serially tenfold-diluted with virus growth medium. […] The cells were washed twice with PBS (pH 8.0), mounted with 60% glycerol, and observed byr inverted fluorescence microscopy. The number of cells showing a viral antigen-positive signal at the endpoint dilution were counted. IC50 was calculated using GraphPad Prism software version 8.4.2. […] CC50 data from the MTT assay and IC50 from the IF assay were both calculated using GraphPad Prism software version 8.4.2.

palmitic and oleic acids = assay: LC-MS quantification of palmitic and oleic acids in IAV-infected A549 cells; format: cell-based, human; conditions: 20 μM
Description: The difference in saturated and unsaturated FFAs between the untreated and the treated cells after infection with IAV or SARS-CoV-2 was determined by GC-FID and LC-MS as previously reported,[11] and detailed procedures are described in Supplementary Information.
The amount of palmitic and oleic acids in the untreated and treated cells after infection with IAV was determined by LC-MS. In brief, A549 cells infected with IAV PR8 strain at an MOI of 0.1 were vehicle-treated, or treated with 20 μM atglistatin or CAY10499 at 12 hpi, or treated with 20 μM atglistatin or CAY10499 and then supplemented individually with 100 μM of PA or OA at 12 hpi, and incubated further for 12 h. Afterward, cells were collected for FFA extraction. 700 μL Chloroform : Methanol (2:1) was added to the freeze cell pellets and vortexed for 1 min. The mixture was sonicated for 5 min and re-vortexed for 1 min. The mixture was centrifuged at 13,000 rpm for 8 min, and the lower organic layer was collected and transferred into a micro-tube. Using vacuum concentrator, the extracts were dried. Finally, the extracts were re-dissolved by methanol and centrifuged at 13,000 rpm for 5 min. The supernatants were transferred into LC-MS vials. […] The standard compounds as well as extracted samples were analyzed in selective ion monitoring (SIM) mode using the ESI source by monitoring the H^- adducts ions. […]

seven target RNA viruses = assay: Broad-spectrum antiviral effect at 1-20 µM at different treatment times (RT-qPCR, CCIF); format: cell-based; conditions: all target RNA viruses, treated just prior to the peak of lipase activity vs immediately after virus absorption

Compound	SI (CC50/IC50) [1]	IC50 [1] [µM]	levels of PA and OA (LC-MS) (palmitic and oleic acids)	viral genome replication and infectious progeny production (seven target RNA viruses)
CN(C)C(=O)Nc1cccc(-c2ccc(N(C)C)cc2)c1 [Atglistatin]	116	1.96 ± 0.14	significantly reduced	greater reduction in viral genome replication and infectious progeny production of all target RNA viruses in a dose-dependent manner
COc1nn(-c2ccc(NC(=O)OCc3ccccc3)c(C)c2)c(=O)o1 [CAY10499]	30	3.19 ± 0.42	significantly reduced	greater reduction in viral genome replication and infectious progeny production of all target RNA viruses in a dose-dependent manner
